The text below walks through data of patent US20220079993A1, “NON-NATURALLY OCCURRING THERMOGENIC ADIPOCYTES, METHODS OF MAKING, AND METHODS OF USE THEREOF” (University of Georgia Research Foundation, Inc., priority 2019, published 2022).

Structures are written as SMILES. Where a name gives a salt, the structure may show the parent alone. Read-outs that look alike come from different tables or passages of the source.

Format in all cases: cell-based, human
Experiment [1] has as its system beige adipocytes. The experiment in a line: High-throughput primary screen, lipolysis assay (glycerol release), 384-well. The note with it: 20 μM; for % Control (relative levels of glycerol release): 24 hours of drug treatment, vs untreated beige adipocytes; for Outcome in the primary screen (glycerol release), in words: 24 hours, cut-offs at 2-fold. On the procedure:
ADSCs were seeded at 5000 cell/cm^2 in 12-well plates, grown for 5 days and then induced to differentiate into GC for 20 days. […] Cells were treated with forskolin (20 μM) for indicated time periods and supernatant samples were collected. Lipolysis assay was performed with free glycerol reagent (Sigma, F6428-40ML), according to manufacturer instructions.
ADSCs were plated in 384-well plates at a density of 5000 cell/cm2 and grown to confluency over ˜4 days. Cells were then differentiated to beige adipocytes using B-8 medium for 21 days. All cell culture and incubations in the 384-well format were done at 37° C. and 5% CO2. […] The use of FDA-approved drugs may allow for re-purposing for therapeutic use.
(§1) Lipolysis assays were performed after 24 hours of drug treatment by measuring free glycerol released in the 384-well format, using the procedure described above. Absorbance for each compound was normalized to untreated control samples for each plate and calculated as a percent of the control. Cut-offs for “activating” and “inhibiting” compounds were set at 2-fold. Validation assays were performed for select compounds at a range of concentration doses.

For experiment [2], the system named is UCP1. The experiment in a line: Secondary screen, UCP1 transcript levels by qRT-PCR. The note with it: secondary screen of primary hits. The source says: FIG. 8A is a scheme used for high-throughput screening (HTS). FIG. 8B is a scatter-plot of glycerol release for each compound assayed (n=3889) in an HTS screen. Data are shown as the percentage of glycerol released compared to untreated beige adipocytes (% of control). FIG. 8C is a computational analysis of preliminary hits identified in the HTS using BiNChE. FIG. 8D is a plot showing the results of a secondary hit validation of primary compounds performed by evaluating levels of UCP1 transcript by qRT-PCR. Unstimulated beige cells, selected adrenergic agonists, and potential new non-adrenergic beige fat activators identified in the primary screen are shown. Transcript levels were normalized to UCP1 levels in ADSCs, n=3 for each technical 20 replicate. *P<0.0.05, **P<0.01, ***P<0.005. FIGS. 8E and 8F are bar graphs showing secondary screening of known thermogenic activators. Transcript levels of UCP1 were assayed in unstimulated ADSCs and ADSC-derived beige adipocytes and following treatment with forskolin (FSK, 20 μM), isoproterenol (1, 10 μM) (8E) and Mirabegron (1, 10 and 25 μM) (8F). Transcript levels were determined by qRT-PCR. n=3 for each independent replicate. Data are mean+/−standard deviation. *P<0.0.05, **P<0.01.
Cells were washed with DPBS, lysed directly on the plate and used for RNA isolation with the E.Z.N.A Total RNA Kit (Omega, R6834-02) according to manufacturer instructions. RNA quantitation was performed with the Biotek Synergy 2 plate reader and cDNA was synthesized using 1 ug of RNA with the iScript cDNA Synthesis Kit (Bio-Rad, 1708841). The qRT-PCR was performed on a ViiA7 Real-Time PCR System (ThermoFisher) using a TaqMan Universal PCR Master Mix (ThermoFisher, 4324020) according to manufacturer instructions with the following TaqMan primer/probe sets (UCP1, Hs01084772_m1), DIO2, Hs00988260_ml, 18S rRNA, Hs03928985_g1). Each assay was performed in triplicate and normalized to 18S rRNA and graphed as mean+/−standard deviation.
To determine if hits identified in the first-round screen activated the thermogenic program, UCP1 transcript levels were used as a readout. This secondary screen incorporated adrenergic agonists, such as Mirabegron, isoproterenol and phenylephrine, and eighteen additional compounds with no reported function in thermogenic regulation (FIG. 8D, 8E, 8F). 18/25 (72%) of the lipolysis-activating compounds identified in the primary screen also activate the thermogenic program through UCP1. Twelve of these compounds have no reported adrenergic agonist activity and could potentially operate through different signaling mechanisms (FIG. 8D and Table 9).
For orientation: Quantitative PCR measures a nucleic acid by following its amplification.

Experiment [3] relates to beige adipocytes. Put plainly: Lipolysis validation assays of primary hits at three concentrations. Details: % of Control (1) / % of Control (2) / % of Control (3) / % of Control (4): unit of the concentration uncertain. The settings on record: for activity at 2.2 µM: Conc. 2.2 µM; for activity at 6.7 µM: Conc. 6.7 µM; for activity at 20 µM: Conc. 20 µM; for activity at 2200 µM: Conc. 2.2 mM. On the procedure: ADSCs were seeded at 5000 cell/cm^2 in 12-well plates, grown for 5 days and then induced to differentiate into GC for 20 days. Prior to the assay, cells were washed in DPBS twice and then incubated with DMEM with 2% fatty-acid free BSA (Santa Crus, sc-500949) and Triascin C (5 μM). Cells were treated with forskolin (20 μM) for indicated time periods and supernatant samples were collected. Lipolysis assay was performed with free glycerol reagent (Sigma, F6428-40ML), according to manufacturer instructions.
as §1
Next, lipolysis assays were performed for all 111 compounds identified in the primary screen at three different concentrations, of which twenty-four were selected for further analysis based on their newness and/or reproducibility.

[4] abbreviates: Homo sapiens, Adipocyte, 24 h, read-out: % of Control (2).
[5] abbreviates: Homo sapiens, Adipocyte, 24 h, read-out: % of Control (4).
The mark [6] stands for this setting: Homo sapiens, Adipocyte, 24 h, read-out: % of Control (1).
Setting [7] is: Homo sapiens, Adipocyte, 24 h, read-out: % of Control (3).

For `CC(C)NCC(O)c1ccc(O)c(O)c1.Cl` (racemic) [(±)-Isoproterenol hydrochloride], in experiment [1], the “% Control (relative levels of glycerol release)” value was found to be 389.02 % control.
Regarding `O=C1CN2Cc3c(ccc(Cl)c3Cl)N=C2N1` [Anagrelide HCl], the “Activation of the thermogenic program (UCP1 transcript), in words” value in experiment [2] is listed as “efficacy in beige cell activation”. Further, in experiment [3] (setting [4]), the activity at 2.2 µM was 146%, the activity at 6.7 µM is 268% and the activity at 20 µM turned out to be 183%. In experiment [3] (setting [5]), the activity at 2.2 µM is 144%, the activity at 6.7 µM turned out to be 156% and the activity at 20 µM came to 161%. Also, in experiment [3] (setting [6]), the activity at 6.7 µM is 195%, the activity at 20 µM is 196% and the activity at 2200 µM was determined as 125%. In experiment [3] (setting [7]), the activity at 6.7 µM was 191%, the activity at 20 µM was determined as 212% and the activity at 2200 µM is 124%.
For `CC(C)(C)NCC(O)COc1cccc2c1CCC(=O)N2.Cl` (stereo not drawn) [Carteolol HLC], in experiment [1], the “% Control (relative levels of glycerol release)” value is on record as 32.31 % control.
On to `CC(C)NCC(O)c1ccc(O)c(O)c1` (stereo not drawn) [Isoproterenol HCl], for which, in experiment [3] (setting [4]), the activity at 2.2 µM is 272%, the activity at 6.7 µM amounted to 294% and the activity at 20 µM was determined as 268%. Besides, in experiment [3] (setting [5]), the activity at 2.2 µM amounted to 251%, the activity at 6.7 µM turned out to be 236% and the activity at 20 µM stood at 237%. For the same compound, in experiment [3] (setting [6]), the activity at 6.7 µM was 284%, the activity at 20 µM is 289% and the activity at 2200 µM is 282%. For the same compound, in experiment [3] (setting [7]), the activity at 6.7 µM stood at 241%, the activity at 20 µM is 252% and the activity at 2200 µM came out at 236%. Further, the “Outcome in the primary screen (glycerol release), in words” value in experiment [1] is listed as “identified as primary hits”.
For `Cc1ccccc1N1CCN(S(=O)(=O)C[C@]23CC[C@H](C[C@@H]2NC(=O)[C@@H](N)CCS(C)(=O)=O)C3(C)C)CC1` [L-368, 899], the “Activation of the thermogenic program (UCP1 transcript), in words” value in experiment [2] is recorded as “activators in both rounds of screening”. In experiment [3] (Conc. 2.2 (unit uncertain)), the “% of Control (1)” value is reported as 196.9 % of Control, the “% of Control (2)” value is on record as 128 % of Control, the “% of Control (3)” value is recorded as 118.57 % of Control and the “% of Control (4)” value is listed as 91.72 % of Control. Further, in experiment [3] (Conc. 6.7 (unit uncertain)), the “% of Control (1)” value is reported as 185.48 % of Control, the “% of Control (2)” value is recorded as 151.88 % of Control, the “% of Control (3)” value was 130.11 % of Control and the “% of Control (4)” value is listed as 148.51 % of Control. In addition, in experiment [3] (Conc. 20 (unit uncertain)), the “% of Control (1)” value is reported as 143.81 % of Control, the “% of Control (2)” value is 179.29 % of Control, the “% of Control (3)” value is given as 192.97 % of Control and the “% of Control (4)” value is reported as 166.21 % of Control.
In the case of `Nc1nc(CC(=O)Nc2ccc(CCNC[C@H](O)c3ccccc3)cc2)cs1` [Mirabegron], in experiment [3] (setting [4]), the activity at 2.2 µM was 198%, the activity at 6.7 µM turned out to be 162% and the activity at 20 µM was determined as 211%. Moreover, in experiment [3] (setting [5]), the activity at 2.2 µM came out at 131%, the activity at 6.7 µM was determined as 192% and the activity at 20 µM amounted to 201%. In experiment [3] (setting [7]), the activity at 6.7 µM came to 168%, the activity at 20 µM is 65% and the activity at 2200 µM worked out at 172%. Also, in experiment [3] (setting [6]), the activity at 20 µM was 200% and the activity at 2200 µM is 142%. In addition, in experiment [3] (Homo sapiens, Adipocyte, 24 h, Conc. 6.7 mM, read-out: % of Control (1)), the activity at 6700 µM was 203%. In experiment [1], the “% Control (relative levels of glycerol release)” value is reported as 211.65 % control and the “Outcome in the primary screen (glycerol release), in words” value is recorded as “efficacy in the HTS”.
In the case of `CNC(=O)c1ccc(C)c(-n2c(C)cc(OCc3ccc(F)cc3F)c(Br)c2=O)c1` [PH-797804], the “% Control (relative levels of glycerol release)” value in experiment [1] is listed as 38.23 % control.
As for `CNC[C@H](O)c1cccc(O)c1` [Phenylephrine HCl], in experiment [3] (setting [4]), the activity at 2.2 µM was 253%, the activity at 6.7 µM turned out to be 266% and the activity at 20 µM was 373%. Besides, in experiment [3] (setting [5]), the activity at 2.2 µM was found to be 240%, the activity at 6.7 µM worked out at 232% and the activity at 20 µM worked out at 232%. In addition, in experiment [3] (setting [6]), the activity at 6.7 µM came to 271%, the activity at 20 µM turned out to be 353% and the activity at 2200 µM is 338%. Further, in experiment [3] (setting [7]), the activity at 6.7 µM was 240%, the activity at 20 µM came to 248% and the activity at 2200 µM came out at 221%.
Take `CC(C)NC[C@H](O)c1ccc(O)c(O)c1.O=C(O)C(O)C(O)C(=O)O` [R(+)-Isoproterenol (+)-bitartrate]: the “% Control (relative levels of glycerol release)” value in experiment [1] is reported as 363.04 % control.
In the case of `COC1(C2=NCCN2)COc2ccccc2O1.Cl` (stereo not drawn) [RX 821002 hydrochloride], the “% Control (relative levels of glycerol release)” value in experiment [1] is recorded as 30.77 % control.
With `CC(C)NC[C@@H](O)c1ccc(O)c(O)c1.O=C(O)C(O)C(O)C(=O)O` [S(−)-Isoproterenol (+)-bitartrate], in experiment [1], the “% Control (relative levels of glycerol release)” value turned out to be 367.84 % control.
Regarding `Oc1ccc(-c2nc(-c3ccc(F)cc3)c(-c3ccncc3)[nH]2)cc1` [SB202190 (FHPI)], in experiment [1], the “% Control (relative levels of glycerol release)” value was determined as 34.88 % control.
`C[n+]1cc2c3c(ccc2c2ccc4cc5c(cc4c21)OCO5)OCO3` [Sanguinarine]: in experiment [3] (setting [4]), the activity at 2.2 µM worked out at 142%, the activity at 6.7 µM was 198% and the activity at 20 µM was determined as 155%. Further, in experiment [3] (setting [5]), the activity at 2.2 µM was 121%, the activity at 6.7 µM came to 101% and the activity at 20 µM was 160%. Also, in experiment [3] (setting [6]), the activity at 6.7 µM is 218%, the activity at 20 µM is 185% and the activity at 2200 µM was determined as 179%. Also, in experiment [3] (setting [7]), the activity at 6.7 µM worked out at 128%, the activity at 20 µM turned out to be 133% and the activity at 2200 µM turned out to be 71.3%.
